# Measurements taken from patent US20200368280A1, “EPIGENETIC MODIFIERS FOR USE IN CELLULAR IMMUNOTHERAPY” (Viracta Therapeutics, Inc., priority 2018, published 2020).
# Read-outs that look alike come from different tables or passages of the source.
# Tests used:
# [1] = test system: exhausted T cell population (CD8+ T cells) from PBMC; experiment: T cell exhaustion assay, CEFT-exhausted PBMC restimulated with DC and CEFT; type: cell-based, human; conditions: for CD8+ T cell proliferation (FIG. 9B, 9C) / IFN-γ release by restimulated CD8+ T cells (percent IFNγ secreting CD8+ cells, FIG. 11): restimulated with CEFT; for CD8+ T cell proliferation (FIG. 9B, 9C): compared to CEFT alone
# Method: FIGS. 12A, 12B and 12C show the effects of anti-PD-1 and nanatinostat treatment on IFN-γ, TNFα, and TGFβ. Isolated PBMC were exhausted with CEFT-stimulation for 10 days prior to being restimulated with moDC and CEFT peptide with compound treatment for an additional 4 days. Luminex analysis was performed and levels of IFN-γ (FIG. 12A), TNFα (FIG. 12B), and TGFβ (FIG. 12C). Dotted lines denote anti-PD-1 control treatment and vehicle control treatment as indicated.
# To test whether nanatinostat can be used to reverse T cell exhaustion, whether by itself or in combination with PD-1, a standard T cell exhaustion assay was used. Peripheral Blood Mononuclear Cells (PBMC) were separated over a density gradient from 3 single human donor buffy coats. PBMC were stimulated with pooled pathogen-specific class I peptides (CEFT) to generate an exhausted T cell population. Cells were then re-stimulated with CEFT and autologous monocyte-derived dendritic cells for a further time before testing in a final re-stimulation assay using replenished DC and CEFT to monitor reversal of exhaustion. […] One dose of HDAC inhibitor was tested and a single dose of anti-PD-1 was used. An unstimulated control and a reference HDAC inhibitor were also plated. Cultures were pulsed with 3H-thymidine and proliferation assessed. Supernatants were also harvested for cytokine analysis by multiplex. Samples of cells were stained with an antibody panel directed against CD4, CD8, PD-1, IL-15R, TIGIT, CD45RO, CCR7, IFNγ and CD25 and characterized using flow cytometry in order to confirm their exhausted phenotype, and whether expression levels were altered following exposure to the combination therapies. PBMC were also phenotyped using the above panel at day 0 to determine the initial frequency of cell populations.
# [2] = test system: BALB/c splenocytes (FoxP3+, CD25+ T regulatory cells); experiment: FACS analysis of splenocytes treated 24 hours with HDAC inhibitor; type: cell-based, BALB/c mice
# Method: Test agents were added to each plate at the concentrations indicated in the table below and were incubated for 24 hours prior to FACS analysis. FACS analysis consisted of the following markers: live/dead, CD45, CD3, CD4, CD25 and FoxP3.
# [3] = test system: gene expression in CT26 tumors; experiment: qPCR gene expression analysis of CT26 tumors on Day 9; type: in vivo, Balb/c mice; conditions: Day 9, tumors
# Method: (§1) Nanatinostat alone and in combination with anti-mPD-1 was evaluated in the CT26 subcutaneous tumor model in Balb/c mice. Animals were dosed orally with nanatinostat at 25 mg/kg daily, and intraperitoneally with anti-mPD-1 at 10 mg/kg on a bi-weekly schedule. 8 animals per group were selected and tumors were collected for FACS and qPCR analysis on Day 9, 12-13 hours post dose. The remaining animals continued to receive their respective treatments until Day 21.
# On Day 9, N=8/arm was harvested tumors for PD assessment. Half of each tumor was flash frozen for subsequent qPCR analysis. Fragments of flash frozen tumors were transferred in RLT PLUS buffer (Qiagen) and loaded into labelled and prefilled tubes with beads and homogenized for 60 seconds at maximum speed. RNA was extracted with AllPrep DNA/RNA Mini kit, purchased from Qiagen, according to the manufacturer's protocol. RNA quantity and purity was evaluated by Synergy 2 Multi-Mode Reader according to the Biotec Protocol. 750 ng total RNA from each sample was used to generate cDNA in a 20 μl reaction. The reaction was performed to the standard of Superscript III First-Strand Synthesis protocol by ThermoFisher by using Eppendorf Mastercycler Pro. […] Gene expression data was analyzed on the ViiA7 system using ABI 2.1 software to generate the raw data. […]
# T cells in CT26 tumors = experiment: FACS analysis of CT26 tumors on Day 9; type: in vivo, Balb/c mice
# Method: as §1
# On Day 9, N=8/arm were harvested tumors for PD assessment 12-13 hours post last dose. Half of each tumor was placed in transfer buffer for FACS analysis.
# CT26 subcutaneous tumor = type: in vivo; conditions: nanatinostat 25 mg/kg orally daily, anti-mPD-1 10 mg/kg intraperitoneally
# Method: as §1
# 144 female Balb/c mice (date of birth: Aug. 1, 2017) purchased from Jackson Laboratories were inoculated for the study. Animals were housed for a stabilization period of 5 days prior to inoculation. Animals were housed in individual HEPA ventilated cages (Innocage® IVC, Innovive USA). Fluorescent lighting was provided on a 12-hour cycle. Temperature and humidity was monitored and recorded daily and maintained to the maximum extent possible between 68-74° F. (20-23° C.) and 30-70% humidity, respectively. 2920X.10 18% soy irradiated rodent feed (Envigo) and autoclaved acidified water (pH2.5-3) was provided ad libitum.
# CT26 cells were cultured as per ATCC's recommended culture protocol. For inoculation, cells were washed in PBS, counted, and resuspended in cold PBS at a concentration of 250,000 viable cells/100 μl. Cell suspension was kept on ice during transport to the vivarium. Cells were prepared for injections by withdrawing cells into a chilled 1 ml syringe fitted with a 26G 7/8 (0.5 mm×22 mm) needle.
# Animals were prepared as needed for injection using standard approved anesthesia, and the mice were shaved prior to injection. One mouse at a time was immobilized and the site of injection was disinfected with an alcohol swab. 100 μl of the cell suspension was subcutaneously injected into the rear flank of the mouse. Mice were marked by ear tagging.
# Animals were monitored daily for palpable tumors, or any changes in appearance or behavior. Once tumors were palpable, they were measured using calipers. Tumor volume was calculated using the following equation (longest diameter×shortest diameter^2)/2.
# [4] = 1 uM, 24 hours, percentage ± SD
# [5] = combination vs anti PD-1 only, nanatinostat only vs vehicle
# [6] = 100 nM, 24 hours, percentage ± SD
# [7] = listed as head prints 'nM' (1 nM), 24 hours, percentage ± SD
Compound,"CD8+ T cell proliferation (FIG. 9B, 9C) [1]","IFN-γ release by restimulated CD8+ T cells (percent IFNγ secreting CD8+ cells, FIG. 11) [1]","CD45+ [2, 4]",KLRC2 expression on NK cells (FIG. 8) [3],"cell viability (FIG. 10A, 10B) ([1]; compared to Entinostat)",CXCR3 expressing cell population in CD4+ T cells in tumors (FIG. 5A) (T cells in CT26 tumors; [5]),CXCR3 expressing cell population in CD8+ T cells in tumors (FIG. 5B) (T cells in CT26 tumors; [5]),CD8+ T-cell population in tumors (T cells in CT26 tumors; compared to the vehicle group),"T cell infiltration in tumors (FIG. 4) (T cells in CT26 tumors; compared to vehicle or anti-PD-1 group, p-value 0.007 for both)","CD45+ [2, 6]","CD45+ CD3+ [2, 6]","CD45+ ([2]; 500 nM, 24 hours, percentage ± SD)","concentration at which the suppressive effect on FoxP3, CD25+ T cells was still seen ([2]; at least as low as)","CD45+ [2, 7]","CD45+ CD3+ CD4+ FoxP3+ [2, 7]",inhibition of tumor growth (CT26 subcutaneous tumor; Day 3),inhibition of tumor growth (CT26 subcutaneous tumor; Day 4),inhibition of tumor growth (CT26 subcutaneous tumor; Day 7),inhibition of tumor growth (CT26 subcutaneous tumor; Day 9),"inhibition of tumor growth (CT26 subcutaneous tumor; Day 9, listed as nanatinostat)"
anti-PD-1 (Pembrolizumab): anti-PD-1 antibody used in the human T cell exhaustion assay [reference compound],restored proliferation,–,–,–,–,–,–,–,–,–,–,–,–,–,–,–,–,–,–,–
"Nc1ccccc1NC(=O)c1ccc(CNC(=O)OCc2cccnc2)cc1 [Entinostat, reference compound]",–,reduced,99.1 ± 0.27%,–,–,–,–,–,–,–,–,–,–,–,–,–,–,–,–,–
"O=C(NO)c1cnc(N2CC3C(C2)C3NCc2ccc3cc(F)ccc3n2)nc1 (centres unmarked) [Nanatinostat, 2-(6-{[(6-Fluoroquinolin-2-yl)methyl]amino}-3-azabicyclo[3.1.0]hex-3-yl)-N-hydroxypyrimidine-5-carboxamide]",negative effect,little effect,99.6 ± 0.17%,increased,well tolerated,no significant difference,no significant difference,higher,significantly increased,99.6 ± 0.12%,94 ± 0.83%,99.5 ± 0.29%,≤ 100 nM,98.6 ± 0.36%,12 ± 1.51%,16.20%,23.31%,38.94%,33.81%,33%
